In experiment [1] the test system is IFN-γ-producing specific cells (lymph node cells). The experiment can be described thus: Induction of peptide-specific T cell responses in vivo, IFN-γ ELISpot of lymph node cells after vaccination with TRP-2 peptide. More on the design: species or system mice (C57BL/6). How it is done: For testing the ability of the (synthetic antimicrobial) peptide KLKLLLLLKLK (SEQ ID NO: 1) to enhance the induction of peptide-specific T cell responses in vivo, groups of 4 mice (C57BL/6, female, 8 weeks of age, H-2b) were injected subcutaneously into the flank 3 times (days 0, 28, and 56), with an antigenic melanoma peptide (100 μg) derived from TRP-2 (mouse tyrosinase related protein-2) alone or in combination with either poly-Larginine or the (synthetic antimicrobial) peptide KLKLLL. LKLK (SEQ ID NO: 1) as “carrier peptide”. The amounts of the (synthetic antimicrobial) peptide KLKLLLLLKLK (SEQ ID NO: 1) used represent four different amounts at concentrations representing the equal amount (100 μg) of poly-L-arginine in terms of μg, the equal (168 μg), the double (336 μg) and the triple (504 μg) amount of poly-L-arginine in terms of positive charges. The groups of mice were injected as follows (amounts indicated/per mouse). • (1) 100 μg peptide • (2) 100 μg peptide+100 μg poly-L-arginine (pR 60) • (3) 100 μg peptide+100 μg KLKLLLLLKLK (SEQ ID NO: 1) • (4) 100 μg peptide+168 μg KLKLLLLLKLK (SEQ ID NO: 1) • (5) 100 μg peptide+336 μg KLKLLLLLKLK (SEQ ID NO: 1) • (6) 100 μg peptide+504 μg KLKLLLLLKLK (SEQ ID NO: 1) […]

The subject of experiment [2] is P388D1 cells (murine monocyte-macrophage antigen presenting cell line). The experiment in a line: TRANSloading of murine macrophages: uptake of fluorescein-tagged antigenic peptide with carrier peptide, flow cytometry. It counts as cell-based. Particulars: Example 1, FIG. 1; 2 μg antigenic peptide; carrier at 101.7, 50.9 and 5.09 nmol positive charges; 1 h at 37° C. The text has this:
To test if the (synthetic antimicrobial) peptide KLKLLLLLKLK (SEQ ID NO: 1) is able to function as “carrier-peptide” for antigens, to TRANSload APCs in vitro, which means enhancing the antigen uptake into APCs, a fluorescently labelled peptide was used as antigenic peptide. It was mixed with diverse concentrations of KLKLLLLLKLK (SEQ ID NO: 1) and other previously described “carrier-peptides” as indicated.
To compare the efficiency of peptide delivery of these diverse “carrier-peptides”, the amount of peptide uptake into APCs was monitored by incubating P388D1 cells (murine monocyte-macrophage antigen presenting cell line; purchased from ATCC (TIB-63)) for 1 h at 37° C. with a constant amount of fluorescein-tagged peptide alone or in combination with diverse “carrier-peptides” at concentrations indicated. Before analysing the cells by flow cytometry, the cells were washed extensively to remove free peptide. The relative amount of fluorescein-tagged peptide taken up by the cells was measured by flow cytometry.
The antigenic peptide used is an influenza-haemagglutinin-derived MHC class I (Kd) binding peptide (Buschle, M. (1997)). 2 μg of this fluorescein-tagged antigenic peptide (LFEAIEGFI) (SEQ ID NO:22) were mixed with 3 different amounts of each carrier peptide tested at concentrations representing 101.7, 50.9 and 5.09 nmol positive charges. […]
For orientation: In flow cytometry, cells or beads pass a laser one at a time.

The subject of experiment [3] is human neutrophils. Conditions: via cell surface calreticulin; cited from earlier work.
Experiment [4] deals with Staphylococcus aureus. Conditions: Staphylococcus aureus-infected mice; cited from earlier work.

“Also recorded” adds a separate entry of the source. Ends that are not written are not given here.

In the case of “KLKLLLLLKLK [synthetic antimicrobial peptide used as carrier peptide/adjuvant]”, in experiment [1] (ELISpot-assay), the “IFN-γ-producing T cells specific for the carrier peptide itself, ELISpot” value was “does not elicit IFN-γ-producing peptide-specific T cells”. In addition, the “IFN-γ-producing specific cells (TRP-2 peptide-specific), ELISpot” value in experiment [1] (FIG. 3, s.c. days 0, 28, 56, 100 μg TRP-2 peptide plus 100-504 μg carrier, 12 days after 3rd vaccination, versus peptide alone or with poly-L-arginine) is listed as “many more IFN-γ-producing specific cells; also recorded: enhances the induction of peptide-specific T cell responses in vivo”. Besides, the “fluorescence of TRANSloaded cells (uptake of fluorescein-tagged peptide LFEAIEGFI)” value in experiment [2] was “high and intense fluorescence”.
In the case of “KLKLLLLLKLK-NH2 [synthetic antimicrobial peptide, amidated form]”, the “superoxide anion (O2−) production” value in experiment [3] was “activated to produce the superoxide anion”. The chemotherapeutic activity entry in experiment [4] is “significant chemotherapeutic activity”.

The record behind these values is US8900564B2, “Vaccine composition comprising an antigen and a peptide having adjuvant properties” (Valneva Austria GmbH, priority 2000, dated 2014).
